For one assay, the system named is primary keratinocytes. The assay is described as follows: In vitro wound scratch assay, primary keratinocytes. It is filed as cell-based, human. Conditions: 500 μM, observed for two days. The text has this:
The MAP kinases p38 and ERK1/2 are often associated with increased proliferation and migration in epidermal wound healing. For this reason, in a further physiological experiment, the effect of Sandalore® on “wound healing” of a confluent cell layer of HaCaT cells or primary keratinocytes was investigated. For this purpose, the wound scratch assay was used, which is an established in vitro method for initial investigations of wound healing processes in keratinocytes.
Effect of Sandalore® stimulation on human keratinocytes in an in vitro “wound healing” assay. Investigation of the “wound healing rate” of A) primary keratinocytes and B) HaCaT cells by means of a wound scratch assay in the presence of Sandalore® (500 μM) or 0.1% DMSO as a control. Left: Transmitted light images of the “wound” observed at various times. The growth margin of the cells was surrounded in black. Scale: 200 μm. Right: Quantitative evaluation of the wound scratch assay. The areas of the wounds were measured and compared to the initial wound (0 h). Mean values including standard error. Mann-Whitney U test; n=4 experiments. *: p<0.05; ***: p<0.001. […] The measured wound areas of the treated cells (after 48-hour stimulation) were compared to the control (0.1% DMSO). […] The measured wound areas of the treated cells were compared to the control (0.1% DMSO). […]

The target in assay [1] is T1, recombinantly expressed OR2AT4 (Homo sapiens, UniProt A6NND4).
T1 construct: expressed in transfected cells; host or cells: Hana3A cells, transient transfection with pcDNA3-OR2AT4 by the calcium phosphate method
T1 sequence (A6NND4 1-320): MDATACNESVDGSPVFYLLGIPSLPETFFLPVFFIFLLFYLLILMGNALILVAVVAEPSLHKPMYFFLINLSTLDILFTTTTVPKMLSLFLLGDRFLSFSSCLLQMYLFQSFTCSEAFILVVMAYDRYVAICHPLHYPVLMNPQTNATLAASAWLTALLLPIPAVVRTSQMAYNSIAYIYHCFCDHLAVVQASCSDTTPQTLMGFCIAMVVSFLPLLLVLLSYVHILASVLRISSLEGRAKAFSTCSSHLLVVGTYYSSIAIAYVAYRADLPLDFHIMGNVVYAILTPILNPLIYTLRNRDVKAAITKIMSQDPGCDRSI
As to the kind of experiment: CRE dual luciferase assay in OR2AT4-transfected Hana3A cells. It is filed as cell-based. Conditions: for activation of the recombinant receptor in the CRE luciferase assay: 4-hour incubation, OR2AT4 expressed in Hana3A cells; for concentration required to produce a significant effect at the receptor: CRE luciferase assay. The source says:
In order to verify calcium imaging results and investigate dose-dependent activation of OR2AT4, a further method of deorphanization based on a dual luciferase system was used. In this method, in addition to the OR, two luciferases were introduced into the Hana3A cells. When the expressed OR is activated by an odorant and cAMP is formed in the further course of the signal cascade, this initiates expression of firefly luciferase via CRE (cAMP response elements). The second luciferase, Renilla luciferase, serves as a control for transfection and vitality of the cells. By calculating the two luciferase values, the activation capacity of an OR by an odorant can be determined. In the CRE luciferase assay, the odorant remains on the cells for hours in order to ensure that the luciferase is expressed. Because of the longer incubation time of the odorants and the possibility of activating more receptors in a 96-well format, this method is more sensitive than calcium imaging and is well-suited for establishing dose-response relationships.
For Brahmanol, however, a higher concentration (≥75 μM) was required than for Sandalore® (≥25 μM) in order to produce a significant effect at the receptor (FIG. 3c).
Determination of receptive field of recombinantly expressed OR2AT4. […] As a control, untransfected Hana3A cells were simulated with Sandalore®. 100 μM of ATP was used at the end of each measurement as a positive control stimulus. […] The mean response rate including standard error of the cells is shown relative to the Ringer control. […] Isobornyl.: isobornyl cyclohexanol; S. öl: sandalwood oil. Kruskal-Wallis test with multiple comparison. *: p<0.05. […] Significance was determined between Hana3A cells transfected with OR2AT4-pcDNA3 and pcDNA3 without an insert. The dots show mean normalized luciferase-activity including standard error. Mann-Whitney U test; n=3 experiments. *: p<0.05; **: p<0.01; ***: p<0.001.

The next assay concerns HaCaT cells. The assay is described as follows: Proliferation assay (CyQuant) on HaCaT cells. It is filed as cell-based, human. The protocol: It was next investigated whether Sandalore® has an effect on the growth behavior of skin cells. For this purpose, HaCaT cells were again stimulated for five days with Sandalore®, and cell count determination was carried out by means of a proliferation assay. […] In order to verify that this increase in proliferation is induced via activation of OR2AT4, HaCaT cells were transfected with siRNA or scRNA respectively, and the proliferation assay was repeated.
In addition, the cell count was determined after costimulation (1:1) by Sandalore® (500 μM) with the antagonists Oxyphenylon (500 μM) or Phenirat (500 μM). […] The effect was significant for Oxyphenylon.
Effect of Sandalore® long-term stimulation on morphology, growth, and migration processes in keratinocytes. A) Phase contrast image and PI stains of HaCaT cells and primary keratinocytes after stimulation with Sandalore® (500 μM) or 0.1% DMSO (control) for five days. On positive PI staining, the cell nuclei are stained red. Scale: 100 μm. B) Evaluation of the proliferation assay carried out with the CyQuant Cell Proliferation Kit on HaCaT cells after 5-day stimulation with 500 μM of Sandalore® or 0.1% DMSO (control). For the RNA interference experiments, the cells were transfected with siRNA or scRNA on the day before Sandalore® stimulation. Shown is the mean cell count including standard error relative to untreated cells. Mann-Whitney U test; n=3 experiments. *: p<0.05; **: p<0.01. S: Sandalore. C) Agarose assay for determination of migration of HaCaT cells. Top: Transmitted light images of HaCaT cells that have migrated in the direction of Sandalore® (500 μM) or 0.1% DMSO. The growth margin of the cells was surrounded in black. Scale: 250 μm. Bottom: Evaluation of the proliferation assay. The longest path traversed by the cells and the overgrown area were measured and compared to the control (0.1% DMSO). Paired two-sided T test. Mean values including standard error; n=4 experiments. **: p<0.01; ***: p<0.001.

3 compounds from US10835500B2, “Medicament for accelerated wound healing” (Symrise AG, priority 2014, dated 2020) can be followed below.

Where only a bound is given, the exact number is not on record here.

As for `CC1=CCC(CCC(C)CO)C1(C)C` (stereo not drawn) [Brahmanol®], the “faster closing of the scratch” value in the assay on primary keratinocytes was determined as 34%. Moreover, in assay [1], the “activation of the recombinant receptor in the CRE luciferase assay” value is given as “significant dose-dependent activation” and the “concentration required to produce a significant effect at the receptor” value was at least 75 µM.

As for `CC(=O)CCc1ccc(O)cc1` [Oxyphenylon], in the assay on HaCaT cells (antagonist alone), the “effect of antagonist alone on proliferation” value is reported as “no significant effect”. The “proliferation after costimulation with Sandalore” value in the assay with HaCaT cells (costimulation 1:1, Sandalore 500 μM + antagonist 500 μM) is recorded as “proliferation was reduced. The effect was significant”.

Regarding `CC1=CCC(CCC(C)C(C)O)C1(C)C` (stereo not drawn) [Sandalore®], in the assay on primary keratinocytes, the “faster closing of the scratch” value turned out to be 34%. Also, in assay [1], the “activation of the recombinant receptor in the CRE luciferase assay” value was “significant dose-dependent activation” and the “concentration required to produce a significant effect at the receptor” value was at least 25 µM. Also, the “increase of proliferation compared to the control (0.1% DMSO)” value with HaCaT cells (5-day stimulation, 500 μM) stood at 33%.
